Measurements published in PubChem BioAssay (NCI).
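Briefly, cells in 96-well plates were exposed to five compound concentrations for 48 h, and endpoints were estimated by linear interpolation. TGI is the concentration that stops growth completely.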

Legend:
Test in all cases: NCI anticancer screen, dose series, 48 h
NCI/ADR-RES ovarian = test system: NCI/ADR-RES ovarian
NCI-H226 lung = test system: NCI-H226 lung
SW-620 colon = test system: SW-620 colon
SF-295 CNS = test system: SF-295 CNS
786-0 renal = test system: 786-0 renal
UO-31 renal = test system: UO-31 renal
SK-OV-3 ovarian = test system: SK-OV-3 ovarian
OVCAR-5 ovarian = test system: OVCAR-5 ovarian
NCI-H460 lung = test system: NCI-H460 lung
CCRF-CEM leukemia = test system: CCRF-CEM leukemia
DU-145 prostate = test system: DU-145 prostate
HCT-15 colon = test system: HCT-15 colon
SK-MEL-2 melanoma = test system: SK-MEL-2 melanoma
OVCAR-4 ovarian = test system: OVCAR-4 ovarian
COLO 205 colon = test system: COLO 205 colon
MCF7 breast = test system: MCF7 breast
SN12C renal = test system: SN12C renal
SK-MEL-28 melanoma = test system: SK-MEL-28 melanoma

Row | Compound | TGI (NCI/ADR-RES ovarian) | TGI (NCI-H226 lung) | TGI (SW-620 colon) | TGI (SF-295 CNS) | TGI (786-0 renal) | TGI (UO-31 renal) | TGI (SK-OV-3 ovarian) | TGI (OVCAR-5 ovarian) | TGI (NCI-H460 lung) | TGI (CCRF-CEM leukemia) | TGI (DU-145 prostate) | TGI (HCT-15 colon) | TGI (SK-MEL-2 melanoma) | TGI (OVCAR-4 ovarian) | TGI (COLO 205 colon) | TGI (MCF7 breast) | TGI (SN12C renal) | TGI (SK-MEL-28 melanoma)
1 | NCCc1ccc2c(c1)C(=O)c1c(O)ccc(O)c1C2=O | > 82.9 µM | > 100 µM | > 100 µM | > 74.9 µM | 8.59 µM | 25.7 µM | 22.2 µM | > 87 µM | > 87.6 µM | > 100 µM | > 100 µM | > 100 µM | > 100 µM | > 100 µM | > 100 µM | > 100 µM |  | 
2 | Cn1c(N)c(-c2c3ccccc3nc3ccccc23)c(=O)n(C)c1=O |  |  | > 100 µM | > 100 µM | > 100 µM |  | > 100 µM | > 100 µM |  | > 100 µM |  | > 100 µM | > 100 µM | > 100 µM | > 100 µM |  | > 100 µM | > 100 µM
3 | O=C(O)Cc1ccc2c(c1O)C(=O)c1c(ccc(CC(=O)O)c1O)C2=O |  | > 100 µM | > 100 µM | > 100 µM | > 100 µM |  | > 100 µM | > 100 µM | > 100 µM | > 100 µM |  | > 100 µM | > 100 µM | > 100 µM | > 100 µM |  | > 100 µM | > 100 µM
4 | C/C(CN1C(=O)c2ccccc2C1=O)=N\NS(=O)(=O)c1ccc(F)cc1 |  | > 100 µM | > 100 µM | > 100 µM | > 100 µM | > 100 µM | > 100 µM | > 100 µM | > 100 µM | > 100 µM |  | > 100 µM | > 100 µM | > 100 µM | > 100 µM |  | > 100 µM | > 100 µM
5 | COC(=O)c1cc(C)n(NC(=O)OC(C)(C)C)c1C |  | > 100 µM | > 100 µM | > 100 µM | > 100 µM | > 100 µM | > 100 µM | > 100 µM | > 100 µM | > 100 µM |  | > 100 µM | > 100 µM |  | > 100 µM |  | > 100 µM | > 100 µM
6 | Cc1cc(=O)[nH]c(CNC(=O)Cc2ccccc2)n1 |  | > 100 µM | > 100 µM | > 100 µM | > 100 µM | > 100 µM | > 100 µM | > 100 µM | > 100 µM | > 100 µM |  | > 100 µM | > 100 µM | > 100 µM | > 100 µM |  | > 100 µM | > 100 µM
7 | COC(=O)/C(=N\O)C(C(=O)C=C(C)C)C(=O)C(=O)Nc1ccccc1C (stereo unspecified) |  | > 100 µM | > 100 µM | > 100 µM | > 100 µM | > 100 µM | > 100 µM | > 100 µM | > 100 µM | > 100 µM |  | > 100 µM | > 100 µM | > 100 µM | > 100 µM |  | > 100 µM | > 100 µM
8 | Nc1ccc(C(=O)NN2C(=O)C(Cl)C2c2cccc([N+](=O)[O-])c2)cc1 (stereo unspecified) |  | 36.8 µM | 40 µM | 43.1 µM | 33.1 µM | 31.3 µM | 33.3 µM | 37.7 µM | > 100 µM | 30.4 µM |  | 45.7 µM | 35.7 µM | 33.4 µM | 35 µM |  | 36.9 µM | 38.5 µM
